The test system of data set [1] is Acinetobacter baumannii 20-1. As to the kind of experiment: microbe, parasite or virus in culture. Type of data set: cell-based. Conditions: 20-1, 20 h. An outline of the steps:
(§1)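 Broth microdilution in MHB with two-fold compound series, 37 °C for 20 h; growth read by OD600 to give MIC. Clinical isolates tested externally by a similar protocol.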

The subject of data set [2] is Acinetobacter baumannii 20-2. As to the kind of experiment: microbe, parasite or virus in culture. Type of data set: cell-based. The note with it: 20-2, 20 h. An outline of the steps:
as §1

In a further data set the test system is Bacillus subtilis 168. As to the kind of experiment: microbe, parasite or virus in culture. In kind it is cell-based. The note with it: 168, 20 h.
The subject of data set [3] is Enterococcus faecalis 19-1. As to the kind of experiment: microbe, parasite or virus in culture. Type of data set: cell-based. The note with it: 19-1, 20 h. A digest of the protocol:
as §1

Data set [4] concerns Enterococcus faecalis OG1RF. As to the kind of experiment: microbe, parasite or virus in culture. In kind it is cell-based. Conditions: OG1RF, 20 h. A digest of the protocol:
as §1

Data set [5] concerns Enterococcus faecium MCC2763. Briefly: microbe, parasite or virus in culture. Type of data set: cell-based. The note with it: MCC2763, 20 h. An outline of the steps:
as §1

Data set [6] deals with Klebsiella pneumoniae 15-1. Briefly: microbe, parasite or virus in culture. The note with it: 15-1, 20 h. In kind it is cell-based. An outline of the steps: as §1
For data set [7], the system named is Klebsiella pneumoniae ATCC700603. Briefly: microbe, parasite or virus in culture. The note with it: ATCC700603, 20 h. Type of data set: cell-based. A digest of the protocol: as §1
Data set [8] concerns Micrococcus luteus DSM1790. Briefly: microbe, parasite or virus in culture. Conditions: DSM1790, 20 h. In kind it is cell-based.
Data set [9] concerns Staphylococcus aureus ATCC25923. As to the kind of experiment: microbe, parasite or virus in culture. In kind it is cell-based. The note with it: ATCC25923, 20 h. A digest of the protocol:
as §1

The test system of data set [10] is S. aureus ATCC 25923. Briefly: Lysis of S. aureus culture. Type of data set: cell-based, Staphylococcus aureus. The note with it: S. aureus ATCC 25923 culture OD600 1.0, 10×MIC, 24 h. The method, then: Growth kinetics of S. aureus
Massatide A or B was prepared in a 96-well plate at the concentration of 8×MIC, 4×MIC, 2×MIC, 1×MIC and 0.5×MIC , respectively. The MHB medium with no compound was used as a control. Then, the overnight culture of S. aureus ATCC 25923 cells was added to the medium at 1:1,000. The plate was incubated with shaking in SpectraMax iD3 (MOLECULAR DEVICES) at 30 ℃. OD600 was measured every 30 min for 36 hours. To analyze the lysis, 1mL of S. aureus ATCC 25923 culture (OD600 1.0) was treated with massatide A or vancomycin (10×MIC) for 24h. An untreated sample was used as a negative control. […]
Experiments were performed in triplicate. […]

The test system of data set [11] is S. aureus ATCC 25923. The method, then:
was used as a negative control.
Experiments were performed in triplicate.
The experiment was performed in triplicate.

Data set [12] deals with TEV protease, Endoproteinase AspN, Endoproteinase GluC. The note with it: many other proteases (TEV protease 37 °C, Endoproteinase AspN and GluC 30 °C), 32 μg/mL, 100:1 (w:w), 4 h, 8 h, 12 h, UPLC-LRMS. The method, then:
(§2) Protease stability of massatide A
(§3) We selected TEV protease, Endoproteinase AspN, Endoproteinase GluC, trypsin, and chymotrypsin to evaluate the stability of massatide A. The protease digestion assay was conducted as follows: (i) Stock solution of massatide A (3.2 mg/mL in DMSO) was diluted in H2O with final concentration of 32 μg/mL, (ii) each protease was added with 100:1 (w:w) ratio and incubated under corresponding temperature, i.e., 37 °C for TEV protease, trypsin, and chymotrypsin and 30 °C for Endoproteinase AspN and […]
(§4) Endoproteinase GluC. […]

The next data set concerns trypsin. Conditions: 32 μg/mL in H2O, protease 100:1 (w:w), 37 °C, 4 h, 8 h and 12 h, UPLC-LRMS. Here is the method: as §2, §3, §4

The structures appear in SMILES notation. Values after ≈ are worked out from the molar mass of the structure shown.

As to `C/C=C1\NC(=O)C(N(C)C)C(C)SC[C@@H](C(=O)N[C@H](CC)C(=O)N[C@H](C(=O)N[C@@H](C)C(=O)N[C@H](C)C(=O)N[C@@H](Cc2ccccc2)C(=O)N[C@@H](C)C(=O)NC2C(=O)NCC(=O)N[C@@H](Cc3ccc(O)cc3)C(=O)N[C@@H](Cc3ccccc3)C(=O)N[C@H](C)C(=O)N/C=C\SC2C)C(C)C)NC(=O)[C@@H]2CCCN2C(=O)[C@H](C(C)C)NC1=O` (stereo partly drawn) [Massatide A (1), massatide A], the MIC was found to be 64 µg/mL (≈ 39.1 µM) in data set [1]; 64 µg/mL (≈ 39.1 µM) in [2]; 2 µg/mL (≈ 1.22 µM) against Bacillus subtilis 168; 4 µg/mL (≈ 2.45 µM) in data set [3]; 4 µg/mL (≈ 2.45 µM) in [4]; 2 µg/mL (≈ 1.22 µM) in data set [5]. Further, the MIC in data set [6] was over 64 µg/mL; in data set [7], over 64 µg/mL; in [8], 0.06 µg/mL (≈ 0.0367 µM); in data set [9], 0.5 µg/mL (≈ 0.306 µM). Moreover, the “lysis of the cell culture” value in the data set on S. aureus ATCC 25923 [10] is listed as “did not result in lysis”. Besides, the “MIC to S. aureus after serial passaging” value against S. aureus ATCC 25923 [11] (25 days of serial passaging in subinhibitory concentrations, triplicate) stood at 4 µg/mL (≈ 2.45 µM). The “change in MIC during serial passaging” value with S. aureus ATCC 25923 [11] (subsequent 19 days after day 6) is “No significant change in MIC”. Moreover, the protease stability entry (in [12]; in the data set with trypsin) was “resistant” throughout.
